From patent US12319672B2, “Alpha-D-galactopyranoside derivatives” (Idorsia Pharmaceuticals Ltd, priority 2019, dated 2025) come the findings set out here.

pIC50: −log10 of the molar value. Where only a bound is given, the exact number is not on record here.

Assay [1] addresses human Gal-3 (hGal-3) (Homo sapiens (Human), UniProt P17931). Kind of assay: Competitive binding assay: binding of biotinylated hGal-3 to microplate-adsorbed asialofetuin (ASF). As to conditions: Activity on hGal-3; mean values of several measurements. The method in brief:
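Compounds diluted in DMSO competed with biotinylated hGal-3 or hGal-1 (300-1000 ng/mL) for binding to plate-adsorbed asialofetuin for 3 h at 4° C. Bound galectin was detected with streptavidin-peroxidase (80 ng/mL, 1 h, 4° C) and ABTS substrate; IC50 reported as mean of several measurements.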

Assay [2] has as its target human Gal-1 (hGal-1). Put plainly: Competitive binding assay: binding of biotinylated hGal-1 to microplate-adsorbed asialofetuin (ASF). As to conditions: Activities on hGal-1; mean values of several measurements. The method in brief: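 Biotin-hGal-3/hGal-1 300-1000 ng/mL + cpd (DMSO dilutions) on ASF-coated plate, 3 h 4° C; wash; SA-HRP 80 ng/mL 1 h 4° C; wash; ABTS. IC50 = mean of several runs. hGal-1 preferably Cys→Ser (all six) mutant.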

Sequence of human Gal-1 (hGal-1) (P09382 2-135 limits assumed): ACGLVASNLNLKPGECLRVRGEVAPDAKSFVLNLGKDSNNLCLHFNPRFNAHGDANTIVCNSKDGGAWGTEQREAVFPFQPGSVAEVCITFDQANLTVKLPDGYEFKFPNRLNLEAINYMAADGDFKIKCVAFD
Sequence of human Gal-3 (hGal-3) (P17931 whole entry): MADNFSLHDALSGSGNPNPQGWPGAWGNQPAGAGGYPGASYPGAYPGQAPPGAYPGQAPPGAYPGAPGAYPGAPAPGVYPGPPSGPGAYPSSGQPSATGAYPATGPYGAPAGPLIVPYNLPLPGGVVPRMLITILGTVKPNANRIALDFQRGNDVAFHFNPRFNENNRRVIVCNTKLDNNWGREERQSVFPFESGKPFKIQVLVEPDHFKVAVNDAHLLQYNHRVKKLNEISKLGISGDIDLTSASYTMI

For `CO[C@@H]1[C@@H](n2cc(-c3ccc(C)c(F)c3)nn2)[C@@H](O)[C@@H](CO)O[C@@H]1Cc1cc(C2CCN(C(C)=O)CC2)on1` [Ex 1.162], the pIC50 (usually the IC50 on a negative log10 scale, so that one unit is a factor of ten) is 7.43 in assay [1] and 6.13 in assay [2].

Consider `CO[C@@H]1[C@@H](n2cc(-c3ccc(Br)c(F)c3F)nn2)[C@@H](O)[C@@H](CO)O[C@@H]1Cc1cc(C2CCN(C(C)=O)CC2)on1` [Ex 1.164], for which the pIC50 is 7.42 in assay [1] and 5.97 in assay [2].

For `CO[C@@H]1[C@@H](n2cc(-c3ccc(Cl)c(F)c3)nn2)[C@@H](O)[C@@H](CO)O[C@@H]1Cc1cc(C2CCN(C(C)=O)CC2)on1` [Ex 1.165], the negative-log IC50 (pIC50) in assay [1] is 7.23; in assay [2] it was 6.17.

On to `CO[C@@H]1[C@@H](n2cc(-c3ccc(F)c(F)c3F)nn2)[C@@H](O)[C@@H](CO)O[C@@H]1Cc1cc(C2CCN(C(C)=O)CC2)on1` [Ex 1.166], for which the pIC50 in assay [1] is 7.59; in assay [2], 6.59.

Consider `CO[C@@H]1[C@@H](n2cc(-c3ccc(C)c(F)c3F)nn2)[C@@H](O)[C@@H](CO)O[C@@H]1Cc1cc(C2CCN(C(C)=O)CC2)on1` [Ex 1.168], for which the figures for the pIC50 in assay [1] and in assay [2] were 7.54 and 6.03, respectively.

Turning to `CO[C@@H]1[C@@H](n2cc(-c3cc(F)cc(Cl)c3)nn2)[C@@H](O)[C@@H](CO)O[C@@H]1Cc1cc(C2CCN(C(C)=O)CC2)on1` [Ex 1.169], the pIC50 in assay [1] was 6.81; in assay [2], 6.33.

Take `CO[C@@H]1[C@@H](n2cc(-c3cc(F)c(C)c(F)c3)nn2)[C@@H](O)[C@@H](CO)O[C@@H]1Cc1cc(C2CCCCC2)on1` [Ex 1.170]: the figures for the pIC50 in assay [1] and in assay [2] were 6.40 and less than 4.00, respectively.

In the case of `CO[C@@H]1[C@@H](n2cc(-c3ccc(C)c(F)c3)nn2)[C@@H](O)[C@@H](CO)O[C@@H]1Cc1cc(C2CCCCC2)on1` [Ex 1.171], the negative logarithm of the IC50 (pIC50) in assay [1] was 6.36; in assay [2], 4.88.

Regarding `CO[C@@H]1[C@@H](n2cc(-c3ccc(Cl)c(F)c3F)nn2)[C@@H](O)[C@@H](CO)O[C@@H]1Cc1cc(C2CCCCC2)on1` [Ex 1.172], the pIC50 was 6.59 in assay [1] and 4.24 in assay [2].

Take `CO[C@@H]1[C@@H](n2cc(-c3ccc(Br)c(F)c3F)nn2)[C@@H](O)[C@@H](CO)O[C@@H]1Cc1cc(C2CCCCC2)on1` [Ex 1.173]: the results for the pIC50 in assay [1] and in assay [2] were 6.36 and 4.32, respectively.

Regarding `CO[C@@H]1[C@@H](n2cc(-c3ccc(Cl)c(F)c3)nn2)[C@@H](O)[C@@H](CO)O[C@@H]1Cc1cc(C2CCCCC2)on1` [Ex 1.174], the pIC50 is 6.05 in assay [1] and 4.73 in assay [2].

Regarding `CO[C@@H]1[C@@H](n2cc(-c3ccc(F)c(F)c3F)nn2)[C@@H](O)[C@@H](CO)O[C@@H]1Cc1cc(C2CCCCC2)on1` [Ex 1.175], the pIC50 in assay [1] is 6.51; in assay [2], 5.32.

Regarding `CO[C@@H]1[C@@H](n2cc(-c3cc(F)c(Cl)c(F)c3)nn2)[C@@H](O)[C@@H](CO)O[C@@H]1Cc1cc(C2CCCCC2)on1` [Ex 1.176], the pIC50 in assay [1] is 6.06; in assay [2], less than 4.00.

On to `CO[C@@H]1[C@@H](n2cc(-c3ccc(C)c(F)c3F)nn2)[C@@H](O)[C@@H](CO)O[C@@H]1Cc1cc(C2CCCCC2)on1` [Ex 1.177], for which the negative logarithm of the IC50 (pIC50) in assay [1] was 6.74; in assay [2] it was 4.19.

For the molecule `CO[C@@H]1[C@@H](n2cc(-c3cc(F)cc(Cl)c3)nn2)[C@@H](O)[C@@H](CO)O[C@@H]1Cc1cc(C2CCCCC2)on1` [Ex 1.178], the pIC50 was 6.01 in assay [1] and 4.99 in assay [2].

As to `CO[C@@H]1[C@@H](n2cc(-c3cc(F)c(C)c(F)c3)nn2)[C@@H](O)[C@@H](CO)O[C@@H]1Cc1cc(C2CCOCC2)on1` [Ex 1.179], the pIC50 in assay [1] was 6.82; in assay [2], 4.96.

As to `CO[C@@H]1[C@@H](n2cc(-c3ccc(C)c(F)c3)nn2)[C@@H](O)[C@@H](CO)O[C@@H]1Cc1cc(C2CCOCC2)on1` [Ex 1.180], the pIC50 is 6.74 in assay [1] and 5.31 in assay [2].

As for `CO[C@@H]1[C@@H](n2cc(-c3ccc(Cl)c(F)c3F)nn2)[C@@H](O)[C@@H](CO)O[C@@H]1Cc1cc(C2CCOCC2)on1` [Ex 1.181], the results for the negative-log IC50 (pIC50) in assay [1] and in assay [2] were 7.25 and 5.09, respectively.

On to `CO[C@@H]1[C@@H](n2cc(-c3ccc(Br)c(F)c3F)nn2)[C@@H](O)[C@@H](CO)O[C@@H]1Cc1cc(C2CCOCC2)on1` [Ex 1.182], for which the negative logarithm of the IC50 (pIC50) in assay [1] is 7.09; in assay [2] it was 5.33.

Turning to `CO[C@@H]1[C@@H](n2cc(-c3ccc(Cl)c(F)c3)nn2)[C@@H](O)[C@@H](CO)O[C@@H]1Cc1cc(C2CCOCC2)on1` [Ex 1.183], the pIC50 in assay [1] was 6.55; in assay [2], 5.28.

Consider `CO[C@@H]1[C@@H](n2cc(-c3ccc(F)c(F)c3F)nn2)[C@@H](O)[C@@H](CO)O[C@@H]1Cc1cc(C2CCOCC2)on1` [Ex 1.184], for which the pIC50 is 6.89 in assay [1] and 5.93 in assay [2].

In the case of `CO[C@@H]1[C@@H](n2cc(-c3cc(F)c(Cl)c(F)c3)nn2)[C@@H](O)[C@@H](CO)O[C@@H]1Cc1cc(C2CCOCC2)on1` [Ex 1.185], the values for the pIC50 in assay [1] and in assay [2] were 6.72 and 5.84, respectively.

Consider `CO[C@@H]1[C@@H](n2cc(-c3ccc(C)c(F)c3F)nn2)[C@@H](O)[C@@H](CO)O[C@@H]1Cc1cc(C2CCOCC2)on1` [Ex 1.186], for which the pIC50 in assay [1] is 7.07; in assay [2] it was 5.21.

`CO[C@@H]1[C@@H](n2cc(-c3cc(F)cc(Cl)c3)nn2)[C@@H](O)[C@@H](CO)O[C@@H]1Cc1cc(C2CCOCC2)on1` [Ex 1.187]: the pIC50 in assay [1] was 6.35; in assay [2] it was 5.22.

For the molecule `CO[C@@H]1[C@@H](n2cc(-c3cc(F)c(C)c(F)c3)nn2)[C@@H](O)[C@@H](CO)O[C@@H]1Cc1cc(C(C)(C)C)on1` [Ex 1.188], the figures for the pIC50 in assay [1] and in assay [2] were 6.74 and 5.12, respectively.

Consider `CO[C@@H]1[C@@H](n2cc(-c3ccc(C)c(F)c3)nn2)[C@@H](O)[C@@H](CO)O[C@@H]1Cc1cc(C(C)(C)C)on1` [Ex 1.189], for which the figures for the pIC50 in assay [1] and in assay [2] were 6.77 and 5.27, respectively.

Regarding `CO[C@@H]1[C@@H](n2cc(-c3ccc(Cl)c(F)c3F)nn2)[C@@H](O)[C@@H](CO)O[C@@H]1Cc1cc(C(C)(C)C)on1` [Ex 1.190], the pIC50 in assay [1] is 7.15; in assay [2], 5.34.

Turning to `CO[C@@H]1[C@@H](n2cc(-c3ccc(Br)c(F)c3F)nn2)[C@@H](O)[C@@H](CO)O[C@@H]1Cc1cc(C(C)(C)C)on1` [Ex 1.191], the values for the negative-log IC50 (pIC50) in assay [1] and in assay [2] were 6.82 and 5.44, respectively.

As to `CO[C@@H]1[C@@H](n2cc(-c3ccc(Cl)c(F)c3)nn2)[C@@H](O)[C@@H](CO)O[C@@H]1Cc1cc(C(C)(C)C)on1` [Ex 1.192], the pIC50 in assay [1] was 6.70; in assay [2] it was 5.73.

Regarding `CO[C@@H]1[C@@H](n2cc(-c3ccc(F)c(F)c3F)nn2)[C@@H](O)[C@@H](CO)O[C@@H]1Cc1cc(C(C)(C)C)on1` [Ex 1.193], the pIC50 in assay [1] is 6.92; in assay [2], 5.90.

Consider `CO[C@@H]1[C@@H](n2cc(-c3cc(F)c(Cl)c(F)c3)nn2)[C@@H](O)[C@@H](CO)O[C@@H]1Cc1cc(C(C)(C)C)on1` [Ex 1.194], for which the pIC50 was 6.74 in assay [1] and 5.45 in assay [2].

For the molecule `CO[C@@H]1[C@@H](n2cc(-c3ccc(C)c(F)c3F)nn2)[C@@H](O)[C@@H](CO)O[C@@H]1Cc1cc(C(C)(C)C)on1` [Ex 1.195], the pIC50 in assay [1] is 7.22; in assay [2] it was 5.48.

As to `CO[C@@H]1[C@@H](n2cc(-c3cc(F)cc(Cl)c3)nn2)[C@@H](O)[C@@H](CO)O[C@@H]1Cc1cc(C(C)(C)C)on1` [Ex 1.196], the pIC50 is 6.40 in assay [1] and 5.61 in assay [2].

With `CO[C@@H]1[C@@H](n2cc(-c3cc(F)c(F)c(F)c3)nn2)[C@@H](O)[C@@H](CO)O[C@@H]1Cc1cc(C2CCN(S(=O)(=NC(C)C)C(C)C)CC2)on1` (stereo partly drawn) [Ex 1.197], the pIC50 in assay [1] was 6.96; in assay [2] it was 5.66.

As to `CCOC(=O)N1CCC(c2cc(C[C@H]3O[C@H](CO)[C@H](O)[C@H](n4cc(-c5ccc(Br)c(F)c5F)nn4)[C@H]3OC)no2)CC1` [Ex 1.198], the pIC50 in assay [1] was 7.33; in assay [2] it was 5.44.

For the molecule `CCOC(=O)N1CCC(c2cc(C[C@H]3O[C@H](CO)[C@H](O)[C@H](n4cc(-c5cc(F)c(Cl)c(F)c5)nn4)[C@H]3OC)no2)CC1` [Ex 1.199], the values for the negative-log IC50 (pIC50) in assay [1] and in assay [2] were 7.28 and 5.22, respectively.

Regarding `CCOC(=O)N1CCC(c2cc(C[C@H]3O[C@H](CO)[C@H](O)[C@H](n4cc(-c5cc(F)cc(Cl)c5)nn4)[C@H]3OC)no2)CC1` [Ex 1.200], the pIC50 is 6.92 in assay [1] and 5.82 in assay [2].

With `CCOC(=O)N1CCC(c2cc(C[C@H]3O[C@H](CO)[C@H](O)[C@H](n4cc(-c5ccc(C)c(F)c5)nn4)[C@H]3OC)no2)CC1` [Ex 1.201], the pIC50 was 7.17 in assay [1] and 5.53 in assay [2].

For `CCOC(=O)N1CCC(c2cc(C[C@H]3O[C@H](CO)[C@H](O)[C@H](n4cc(-c5cc(F)c(C)c(F)c5)nn4)[C@H]3OC)no2)CC1` [Ex 1.202], the pIC50 is 7.48 in assay [1] and 5.40 in assay [2].

Take `CCOC(=O)N1CCC(c2cc(C[C@H]3O[C@H](CO)[C@H](O)[C@H](n4cc(-c5ccc(Cl)c(F)c5F)nn4)[C@H]3OC)no2)CC1` [Ex 1.203]: the pIC50 in assay [1] is 7.59; in assay [2], 5.75.

Take `CC(=O)O[C@@H]1[C@@H](n2cc(-c3ccc(C)c(F)c3F)nn2)[C@@H](O)[C@@H](CO)O[C@@H]1Cc1cc(C(C)(C)C)on1` [Ex 1.204]: the values for the pIC50 in assay [1] and in assay [2] were 7.39 and 4.76, respectively.

Regarding `Cc1ccc(-c2cn([C@H]3[C@@H](O)[C@@H](CO)O[C@H](Cc4cc(C(C)(C)C)on4)[C@@H]3O)nn2)c(F)c1F` [Ex 1.205], the results for the pIC50 in assay [1] and in assay [2] were 7.39 and 5.05, respectively.
